According to patent publication US4731109A, “Herbicidal 2-haloacetanilides” (Monsanto Company, priority 1982, dated 1988):

What was measured:
Quackgrass [1] = assay: Greenhouse pre-emergence GR15/GR85 selectivity test; assay type: in vivo
From the text: (§1) A good grade of top soil is placed in aluminum pans and compacted to a depth of three-eighths to one-half inch from the top of the pan. On the top of the soil is placed a number of seeds or vegetative propagules of various plant species. The soil required to level fill the pans after seeding or adding vegetative propagules is weighed into a pan. The soil and a known amount of the active ingredient applied in a solvent or as a wettable powder suspension are thoroughly mixed, and used to cover the prepared pans. […] As an alternative procedure, the overhead irrigation may be omitted. Observations are made about 2-3 weeks after seeding and treatment.
(§2) A further guide to the effectiveness of a chemical as a selective herbicide is the "selectivity factor" ("SF") for a herbicide in given crops and weeds. The selectivity factor is a measure of the relative degree of crop safety and weed injury and is expressed in terms of the GR15 /GR85 ratio, i.e., the GR15 rate for the crop divided by the GR85 rate for the weed, both rates in kg/ha (lb/A). In the tables below, selectivity factors are shown in parenthesis following the GR85 rate for each weed; the symbol "NS" indicates "non-selective". Marginal or undetermined selectivity is indicated by a dash (--).
(§3) These weeds are commonly associated with such major crops as corn and soybeans. […] The test procedure was the same as described for Tables II and III but modified by the application of an initial overhead irrigation equivalent to 1/4" (0.64 cm) rainfall; subsequent watering was accomplished by subirrigation. "NS" means non-selective within the test limits.
(§4) Unless otherwise noted; greenhouse tests in Table VI and in other tables below involved herbicide treatments by soil incorporation and an initial overhead irrigation followed by subirrigation as described above.

Yellow Nutsedge = assay: as above; assay type: in vivo
From the text: as §1, §2, §3, §4

corn = assay: as above; assay type: in vivo
From the text: (§5) A good grade of top soil is placed in aluminum pans and compacted to a depth of three-eighths to one-half inch from the top of the pan. On the top of the soil is placed a number of seeds or vegetative propagules of various plant species. The soil required to level fill the pans after seeding or adding vegetative propagules is weighed into a pan. The soil and a known amount of the active ingredient applied in a solvent or as a wettable powder suspension are thoroughly mixed, and used to cover the prepared pans. After treatment, the pans are given an initial overhead irrigation of eater, equivalent to one-fourth inch (0.64 cm) rainfall, then watered by subirrigation as need to give adequate moisture for germination and growth. As an alternative procedure, the overhead irrigation may be omitted. Observations are made about 2-3 weeks after seeding and treatment.
(§6) In the discussion and tables of data below, reference is made to herbicide application rates symbolized as "GR15 " and "GR85 "; these rates are given in kilograms per hectare (kg/ha) which are convertible into pounds per acre (lbs/A) by dividing the kg/ha rate by 1.12.
as §2
In Table IV pre-emergence herbicidal activity data are presented comparing the relative efficacy of the invention compounds and said prior art compounds as selective herbicides against the resistant and troublesome perennial weeds quackgrass and yellow nutsedge in soybeans and corn, respectively. These weeds are commonly associated with such major crops as corn and soybeans. The test data in Table IV were obtained under identical procedural conditions and represent two replicate runs (except for the compound of Example 9 which was present in one comparative test). The test procedure was the same as described for Tables II and III but modified by the application of an initial overhead irrigation equivalent to 1/4" (0.64 cm) rainfall; subsequent watering was accomplished by subirrigation. "NS" means non-selective within the test limits.
(§7) Additionally, pre-emergence herbicidal data from other tests have established that compounds according to this invention also selectively suppress quackgrass, yellow nutsedge and/or other weeds in one or more of the crops cotton, peanuts, bush beans and/or rape. For example, in Table VI are presented data showing the herbicidal selectivity of the compounds of Examples 1 and 2 against quackgrass in rape and snap beans. Unless otherwise noted; greenhouse tests in Table VI and in other tables below involved herbicide treatments by soil incorporation and an initial overhead irrigation followed by subirrigation as described above.

rape = assay: as above; assay type: in vivo; details: Table VI
From the text: as §5, §6, §2, §7
(§8) In another greenhouse test, the compounds of Examples 3-5, 9 and 10 were tested for their herbicidal efficacy against a variety of resistant annual and perennial weeds in rape.

purple nutsedge = assay: as above; assay type: in vivo
From the text: as §5, §6, §2, §7
In other greenhouse tests, compounds according to this invention have shown selective control of a variety of annual and perennial weeds in various crops. As further illustrative, the compound of Example 1 selectively controlled purple nutsedge in both corn nd soybeans, the respective crop/weed GR15 /GR85 ratios (expressed in kg/ha) being 0.67/0.25 (S.F.=2.7) in corn and 1.1/0.25 (S.F.=4.5) in soybeans. The compound of Example 8 has shown selective control of yellow nutsedge and quackgrass in corn and soybeans. The respective crop/yellownutsedge GR15 /GR85 ratios being >2.2/0.95 (S.F.=2.5) in corn; 2.2/0.5 (SF=4.5) in soybeans and the respective GR15 /GR85 ratios for both corn and soybeans in quackgrass being >2.2/0.5 (S.F.=4.5). In a test against yellow nutsedge in cotton, the GR15 /GR85 ratio (average of two replicates) was 2.0/0.95 (S.F.=2).
as §8

red rice = assay: as above; assay type: in vivo; details: Table XIV
From the text: as §1, §2, §4

wild proso millet = assay: as above; assay type: in vivo, wild proso millet (panicum milicaeum); details: Table XIV
From the text: as §1, §2, §4

Quackgrass [2] = assay: Herbicidal effect in a variety of soil types; assay type: in vivo; details: for selectivity factor (GR15/GR85): in soybeans
From the text: The herbicide treatments were by soil incorporation with seeds planted 0.375 in (0.95 cm) deep, with 0.25 in (0.64 cm overhead irrigation. Observations were made about three weeks after treatment. Selectivity factors are shown in parenthesis.

soybeans = assay: Herbicidal effect in a variety of soil types; assay type: in vivo
[3] = Drummer silty clay, Table XVII A
[4] = Drummer silty clay, Table XVII B
[5] = Drummer silty clay, Table XVII C
[6] = Wabash silty clay, Table XVII B
[7] = Wabash silty clay, Table XVII C

SMILES: CCOCN(C(=O)CCl)c1c(C)cccc1C(F)(F)F [Example 1, N-(ethoxymethyl)-2'-trifluoromethyl-6'-methyl-2-chloroacetanilide]
- GR85 (Quackgrass [1]; Table IV, Replicate #1): 0.18 Kg/Ha
- GR85 (Quackgrass [1]; Table IV, Replicate #2): 0.16 Kg/Ha
- GR85 (Quackgrass [1]; Table V): 0.08 Kg/Ha
- selectivity factors relative to prior art compounds (Quackgrass [1]; Table V, quackgrass and yellow nutsedge in corn and soybeans): exceedingly higher selectivity factors
- GR85 Rate (Quackgrass [1]; Table VI): 0.12 Kg/Ha
- GR85 (Quackgrass [1]; Table XIII): 0.07 Kg/Ha
- selectivity against quackgrass in wheat (Quackgrass [1]; in wheat): non-selective
- selectivity factor (GR15/GR85) (Quackgrass [1]; quackgrass in corn, Table IV, Replicate #1): 4
- selectivity factor (GR15/GR85) (Quackgrass [1]; quackgrass in corn, Table IV, Replicate #2): 5
- selectivity factor (GR15/GR85) (Quackgrass [1]; quackgrass in corn, Table V): 27.5
- selectivity factor (GR15/GR85) (Quackgrass [1]; quackgrass in corn, Table XIII): 10
- selectivity factor (GR15/GR85) (Quackgrass [1]; quackgrass in rape, Table VI): 7
- selectivity factor (GR15/GR85) (Quackgrass [1]; quackgrass in snapbeans, Table VI): 7
- selectivity factor (GR15/GR85) (Quackgrass [1]; quackgrass in soybeans, Table IV, Replicate #1): 17
- selectivity factor (GR15/GR85) (Quackgrass [1]; quackgrass in soybeans, Table IV, Replicate #2): 14
- selectivity factor (GR15/GR85) (Quackgrass [1]; quackgrass in soybeans, Table V): 35
- selectivity factor (GR15/GR85) (Quackgrass [1]; quackgrass in soybeans, Table XIII): 11.6
- GR85 (Yellow Nutsedge; Table IV, Replicate #1): 0.20 Kg/Ha
- GR85 (Yellow Nutsedge; Table IV, Replicate #2): 0.12 Kg/Ha
- GR85 (Yellow Nutsedge; Table V): 0.10 Kg/Ha
- GR85 (Yellow Nutsedge; Table XII): 0.24 Kg/Ha
- selectivity with respect to yellow nutsedge in rice (Yellow Nutsedge; in rice): non-selective
- selectivity factor (GR15/GR85) (Yellow Nutsedge; yellow nutsedge in corn, Table IV, Replicate #1): 4
- selectivity factor (GR15/GR85) (Yellow Nutsedge; yellow nutsedge in corn, Table IV, Replicate #2): 6
- selectivity factor (GR15/GR85) (Yellow Nutsedge; yellow nutsedge in corn, Table V): 22
- selectivity factor (GR15/GR85) (Yellow Nutsedge; yellow nutsedge in corn, Table XII): 2.9
- selectivity factor (GR15/GR85) (Yellow Nutsedge; yellow nutsedge in cotton, Table XII): 8
- selectivity factor (GR15/GR85) (Yellow Nutsedge; yellow nutsedge in soybeans, Table IV, Replicate #1): 15
- selectivity factor (GR15/GR85) (Yellow Nutsedge; yellow nutsedge in soybeans, Table IV, Replicate #2): 18
- selectivity factor (GR15/GR85) (Yellow Nutsedge; yellow nutsedge in soybeans, Table V): 28
- selectivity factor (GR15/GR85) (Yellow Nutsedge; yellow nutsedge in soybeans, Table XII): 3.6
- GR15 (corn; Table IV, Replicate #1): 0.76 Kg/Ha
- GR15 (corn; Table IV, Replicate #2): 0.76 Kg/Ha
- GR15 (corn; Table V): 2.2 Kg/Ha
- GR15 (corn; Table XII): 0.69 Kg/Ha
- GR15 (corn; Table XIII): 0.69 Kg/Ha
- GR15 (corn; corn/purple nutsedge): 0.67 kg/ha
- GR15 Rate (rape): 0.85 Kg/Ha
- GR85 (purple nutsedge; in corn): 0.25 kg/ha
- S.F. (GR15/GR85) (purple nutsedge; in corn): 2.7
- GR85 (purple nutsedge; in soybeans): 0.25 kg/ha
- S.F. (GR15/GR85) (purple nutsedge; in soybeans): 4.5
- GR85 Rate (red rice): 0.2 Kg/Ha
- selectivity factor (GR15/GR85) (red rice; in soybeans): > 5.5
- GR85 Rate (wild proso millet): 1.1 Kg/Ha
- selectivity factor (GR15/GR85) (wild proso millet; in soybeans): > 1.0
- GR85 (Quackgrass [2]; [3]): 0.11 Kg/Ha
- GR85 (Quackgrass [2]; [4]): 0.17 Kg/Ha
- GR85 (Quackgrass [2]; [5]): 0.13 Kg/Ha
- GR85 (Quackgrass [2]; Florida muck, Table XVII A): 0.52 Kg/Ha
- GR85 (Quackgrass [2]; Florida muck, Table XVII B): 0.78 Kg/Ha
- GR85 (Quackgrass [2]; Florida muck, Table XVII C): 0.74 Kg/Ha
- GR85 (Quackgrass [2]; Florida sand, Table XVII A): 0.2 Kg/Ha
- GR85 (Quackgrass [2]; Florida sand, Table XVII B): 0.48 Kg/Ha
- GR85 (Quackgrass [2]; Ray silt loam, Table XVII A): 0.22 Kg/Ha
- GR85 (Quackgrass [2]; Ray silt loam, Table XVII B): 0.13 Kg/Ha
- GR85 (Quackgrass [2]; Ray silt loam, Table XVII C): 0.10 Kg/Ha
- GR85 (Quackgrass [2]; Sarpy silty clay, Table XVII A): 0.28 Kg/Ha
- GR85 (Quackgrass [2]; Sarpy silty clay, Table XVII B): 0.10 Kg/Ha
- GR85 (Quackgrass [2]; Sarpy silty clay, Table XVII C): 0.13 Kg/Ha
- GR85 (Quackgrass [2]; Wabash silty clay, Table XVII A): 0.28 Kg/Ha
- GR85 (Quackgrass [2]; [6]): 0.13 Kg/Ha
- GR85 (Quackgrass [2]; [7]): 0.07 Kg/Ha
- selectivity factor (GR15/GR85) (Quackgrass [2]; [3]): 20
- selectivity factor (GR15/GR85) (Quackgrass [2]; [4]): 13
- selectivity factor (GR15/GR85) (Quackgrass [2]; [5]): 14.5
- selectivity factor (GR15/GR85) (Quackgrass [2]; Florida muck, Table XVII A): > 4.5
- selectivity factor (GR15/GR85) (Quackgrass [2]; Florida muck, Table XVII B): > 3
- selectivity factor (GR15/GR85) (Quackgrass [2]; Florida muck, Table XVII C): > 3
- selectivity factor (GR15/GR85) (Quackgrass [2]; Florida sand, Table XVII A): 10
- selectivity factor (GR15/GR85) (Quackgrass [2]; Florida sand, Table XVII B): 4.5
- selectivity factor (GR15/GR85) (Quackgrass [2]; Ray silt loam, Table XVII A): 5
- selectivity factor (GR15/GR85) (Quackgrass [2]; Ray silt loam, Table XVII B): 16.5
- selectivity factor (GR15/GR85) (Quackgrass [2]; Ray silt loam, Table XVII C): 19.5
- selectivity factor (GR15/GR85) (Quackgrass [2]; Sarpy silty clay, Table XVII A): > 8
- selectivity factor (GR15/GR85) (Quackgrass [2]; Sarpy silty clay, Table XVII B): 22
- selectivity factor (GR15/GR85) (Quackgrass [2]; Sarpy silty clay, Table XVII C): > 16.5
- selectivity factor (GR15/GR85) (Quackgrass [2]; [6]): 17
- selectivity factor (GR15/GR85) (Quackgrass [2]; [7]): 31.5
- GR15 (soybeans; [3]): > 2.2 Kg/Ha
- GR15 (soybeans; [4]): 2.2 Kg/Ha
- GR15 (soybeans; [5]): 2.0 Kg/Ha
- GR15 (soybeans; Florida muck, Table XVII A): > 2.2 Kg/Ha
- GR15 (soybeans; Florida muck, Table XVII B): 2.2 Kg/Ha
- GR15 (soybeans; Florida muck, Table XVII C): > 2.2 Kg/Ha
- GR15 (soybeans; Florida sand, Table XVII A): 2.0 Kg/Ha
- GR15 (soybeans; Florida sand, Table XVII B): 2.2 Kg/Ha
- GR15 (soybeans; Ray silt loam, Table XVII A): 1.1 Kg/Ha
- GR15 (soybeans; Ray silt loam, Table XVII B): 2.2 Kg/Ha
- GR15 (soybeans; Ray silt loam, Table XVII C): 2.0 Kg/Ha
- GR15 (soybeans; Sarpy silty clay, Table XVII A): > 2.2 Kg/Ha
- GR15 (soybeans; Sarpy silty clay, Table XVII B): 2.2 Kg/Ha
- GR15 (soybeans; Sarpy silty clay, Table XVII C): > 2.2 Kg/Ha
- GR15 (soybeans; [6]): 2.2 Kg/Ha
- GR15 (soybeans; [7]): 2.2 Kg/Ha
